Laboratory results as given in US11802107B2, “Compounds and methods of use” (Signum Biosciences, Inc., priority 2017, dated 2023).

What was measured:
[1] = system: TSLP; experiment: S. aureus-induced TSLP on NHEKs; format: cell-based; conditions: Homo sapiens; NHEK, live S. aureus ATCC 33591 1:1, 24 hours, ELISA; read-out: S. aureus-NHEK TSLP Protein IC50
Method: Normal human epidermal keratinocytes (NHEKs) from neonatal donors were obtained from Thermo-Fisher (Cat No. C-001-5C). Cells were cultured in 96-well plates for 24 hours with EpiLife media (Cat No. MEPI500CA) supplemented with keratinocytes growth supplement (Cat No. 50015). On Day 2, media was removed and replaced with supplement-depleted medium for 24 hours. On Day 3, media was removed and cells were pre-treated with test materials (≤[…]) for 2 hours and later co-treated with test materials and live S. aureus (ATCC® 33591) at 1:1 NHEK:bacteria ratio for 24 hours at 37° C. and 5% CO2. After incubation, cell media supernatants were harvested and used to measure TSLP levels using ELISA kit (R&D Systems® #DY1398). Results were represented as percent of inhibition relative to untreated and S. aureus-only treated cells. IC50 values were determined by non-linear regression analysis using the four-parameter logistic equation.

[2] = system: IL-6; experiment: Nickel (Ni2+)-induced IL-6 on HDMECs; format: cell-based; conditions: Homo sapiens; HDMEC, 1 mM NiSO4, 6 hours, ELISA; read-out: Nickel-HDMECs IL-6 Protein IC50
Method: Human Dermal Microvascular Endothelial cells (HDMECs) from human skin tissues were obtained from Sciencell, Inc. (Cat No. 2000). Cells were cultured in 96-well plates for 24 hours with ECM media (Cat No. 1001) supplemented with endothelial cell growth supplement (Cat No. 50015) and 5% v/v FBS. On Day 2, media was removed and replaced with supplement-depleted medium for 24 hours. On Day 3, media was removed and cells were pre-treated with test materials (≤10 μM) for 2 hours and later co-treated with test materials and 1 mM NiSO4 (Sigma-Aldrich, Cat No. 227676) for 6 hours at 37° C. and 5% CO2. After incubation, cell media supernatants were harvested and used to measure IL-6 levels using ELISA kit (BD Biosciences® #555220). Results were represented as percent of inhibition relative to untreated and NiSO4-only treated cells. IC50 values were determined by non-linear regression analysis using the four-parameter logistic equation.

[3] = system: TSLP; experiment: Calcipotriol-induced TSLP in vivo; conditions: CD1 mice, calcipotriol 4 nmol/ear, 24 hours
Text: CD1 mice were topically exposed to 4 nmol/ear Calcipotriol. Five minutes after challenge compounds were applied. Twenty-four hours later, protein samples were extracted from ear skin biopsies and analyzed for TSLP levels by ELISA method. Vehicle for compounds were 60:40 EtOH:H2O (Compound C) or 1:1 EtOH:Acetone (AN2728). Data represents average±S.E. of a representative set from 2 independent experiments (n=6 mice per group). *p value<0.05; **p value≤0.01 by Student t test compared to Calcipotriol+vehicle-only treated animals. ns equals not significant.

[4] = system: IL-5; experiment: T-cell receptor (anti-CD3/CD28)-induced IL-5 on PBMCs; format: cell-based; conditions: Homo sapiens, PBMC, anti-CD3/CD28 beads, 24 hours, ELISA, read-out: TCR-PBMCs IL-5 Protein IC50
Method: (§1) Cryopreserved human Peripheral Blood Mononuclear cells (PBMCs) from healthy adult donors were obtained from Zen Bio, Inc (Cat No. SER-PBMC-F). Cells were cultured in 96-well plates with lymphocyte media (Cat No. LYMPH-1) and were pre-treated with test materials (≤100 μM) for 2 hours and later co-treated with test materials and anti-CD3/CD28 beads (Thermo-Fisher; Cat No. 11131D) at 1:0.4 PBMC:bead ratio for 24 hours at 37° C. and 5% CO2. After incubation, cell media supernatants were harvested and used to measure cytokine levels (IL-4, IL-5, IL-10) using ELISA kits (BD Biosciences® #555194, #555157; R&D Systems® #DY317). Results were represented as percent of inhibition relative to untreated and anti-CD3/CD28 beads-only treated cells. IC50 values were determined by non-linear regression analysis using the four-parameter logistic equation.

[5] = system: IL-4; experiment: T-cell receptor (anti-CD3/CD28)-induced IL-4 on PBMCs; format: cell-based; conditions: Homo sapiens, PBMC, anti-CD3/CD28 beads, 24 hours, ELISA, read-out: TCR-PBMCs IL-4 Protein IC50
Method: as §1

[6] = system: LPS-induced cytokines; experiment: LPS-induced cytokines on PBMCs; format: cell-based, human; conditions: LPS instead of anti-CD3/CD28 beads
Method: as §1
(§2) By a similar method, but instead of anti-CD3/CD28 beads (Thermo-Fisher; Cat No. 11131D), compounds A, C, T and E were treated with LPS (Sigma Aldrich, Cat. No. LF4321) to measure inhibition of LPS-induced cytokines, and compounds C and T were treated with PHA-L (Sigma Aldrich, Cat No. 11249738001) to measure inhibition of PHA-induced cytokines.

[7] = system: PHA-induced cytokines; experiment: PHA-induced cytokines on PBMCs (Example F); format: cell-based, human; conditions: PHA-L instead of anti-CD3/CD28 beads
Method: as §1, §2

[8] = system: IL-8; experiment: Peptidoglycan (PGN)-induced IL-8 on NHEKs; format: cell-based, human; conditions: for IC50: Homo sapiens, NHEK, PGN 10 μg/mL, 24 hours, ELISA, read-out: PGN-NHEK 1L-8 Protein IC50; for PGN-induced IL-8 production: cultured human keratinocytes exposed to peptidoglycan (PGN)
Method: Normal human epidermal keratinocytes (NHEKs) from neonatal donors were obtained from Thermo-Fisher (Cat No. C-001-5C). Cells were cultured in 96-well plates for 24 hours with EpiLife media (Cat No. MEPI500CA) supplemented with keratinocytes growth supplement (Cat No. S0015). On Day 2, media was removed and replaced with supplement-depleted medium for 24 hours. On Day 3, media was removed and cells were pre-treated with test materials (≤1 μM) for 2 hours and later co-treated with test materials and PGN (Sigma Aldrich, Cat No. 77140) at 10 μg/mL and incubated for 24 hours at 37° C. and 5% CO2. PGN is a TLR-2 agonist. After incubation, cell media supernatants were harvested and used to measure pro-inflammatory cytokine levels (IL-8) using ELISA kit (BD Biosciences® #555244). Results were represented as percent of inhibition relative to untreated and PGN-only treated cells. IC50 values were determined by non-linear regression analysis using the four-parameter logistic equation.

[9] = system: subjects with mild to moderate acne; experiment: 8-week clinical study in subjects with mild to moderate acne; format: in vivo; design: scale not given here; conditions: E 1% w/w, BPO 3% w/w, human
Text: Subjects used the assigned product at home for 8 weeks. Subjects returned post baseline at week 2, 4 and 8. At each visit subjects underwent expert clinical grading and test site photography. […] The severity of acne signs and symptoms on the faces of >18 yo subjects were clinically assessed by IGA scale during an 8-week Study period. In addition, UV light mode was utilized to observe porphyrins fluorescence (orange-red dots).

## N#Cc1ccc(Oc2ccc3c(c2)COB3O)cc1 [AN2728, reference compound]
[1]
  IC50: 5 µM
[2]
  IC50: 100 µM
[3]; topical dose 4.0 μg/ear
  AVG - TSLP: 2495.1 pg/6 mm biopsy
  TSLP % inhb: 51%
[3]; topical dose 40.0 μg/ear
  AVG - TSLP: 2235.3 pg/6 mm biopsy
  TSLP % inhb: 57%
[3]; topical dose 400.0 μg/ear
  AVG - TSLP: 352.1 pg/6 mm biopsy
  TSLP % inhb: 102%
[4]
  IC50: 1 µM
[5]
  IC50: 2 µM

## C/C(=C\CSCC(NC(=O)NCC(=O)O)C(=O)O)CCCC(C)CCCC(C)CCCC(C)C (stereo not drawn) [A]
[1]
  IC50: 9 µM
[2]
  IC50: 0.03 µM
[6]
  inhibition of LPS-induced cytokines: did not show significant inhibition
[4]
  IC50: 55 µM
[5]
  IC50: > 100 µM

## C/C(=C\CSC[C@H](NC(=O)N(C)CC(=O)O)C(=O)O)CCCC(C)CCCC(C)CCCC(C)C (stereo partly drawn) [Compound C, (2R)-2-{[(carboxymethyl)(methyl)carbamoyl]amino}-3-{[(2E)-3,7,11,15-tetramethylhexadec-2-en-1-yl]sulfanyl}propanoic acid]
[1]
  IC50: 3 µM
[7]
  inhibition of PHA-induced cytokines: did not show significant inhibition
[2]
  IC50: 0.02 µM
[6]
  inhibition of LPS-induced cytokines: did not show significant inhibition
[8]
  IC50: 0.25 µM
[3]; topical dose 4.0 μg/ear
  AVG - TSLP: 2753.6 pg/6 mm biopsy
  TSLP % inhb: 15%
[3]; topical dose 40.0 μg/ear
  AVG - TSLP: 1156.1 pg/6 mm biopsy
  TSLP % inhb: 74%
[3]; topical dose 400.0 μg/ear
  AVG - TSLP: 759.9 pg/6 mm biopsy
  TSLP % inhb: 88%
[4]
  IC50: 46 µM
[5]
  IC50: 20 µM

## C/C(=C\CSC[C@H](NC(=O)N1CCC[C@H]1C(=O)O)C(=O)O)CCCC(C)CCCC(C)CCCC(C)C (stereo partly drawn) [Compound E]
[9]; 2 week
  Investigator Global Assesment (IGA) Scale: 2
[9]; 4 week
  Investigator Global Assesment (IGA) Scale: 1
[9]; 8 week
  Investigator Global Assesment (IGA) Scale: 0
[9]; Baseline
  Investigator Global Assesment (IGA) Scale: 3
[6]
  inhibition of LPS-induced cytokines: did not show significant inhibition
[8]
  IC50: 0.25 µM
  PGN-induced IL-8 production: inhibit IL-8 production
[4]
  IC50: 63 µM
[5]
  IC50: 42 µM

## C/C(=C\CSCC(NC(=O)N(CC(=O)O)CC(=O)O)C(=O)O)CCCC(C)CCCC(C)CCCC(C)C (stereo not drawn) [Compound G]
[8]
  IC50: 0.05 µM
  PGN-induced IL-8 production: inhibit IL-8 production

## C/C(=C\CSC[C@H](NC(=O)COCC(=O)O)C(=O)O)CCCC(C)CCCC(C)CCCC(C)C (stereo partly drawn) [Compound T]
[1]
  IC50: 10 µM
[7]
  inhibition of PHA-induced cytokines: did not show significant inhibition
[2]
  IC50: 0.01 µM
[6]
  inhibition of LPS-induced cytokines: did not show significant inhibition
[4]
  IC50: 9 µM
[5]
  IC50: 25 µM
